This note sets out measurements from publication PMC10872856 (The Prostate, 2023).

In the assay the target is T1, N-myristoyltransferase 1 (NMT1) (Homo sapiens, UniProt P30419).
T1 sequence (P30419 1-496): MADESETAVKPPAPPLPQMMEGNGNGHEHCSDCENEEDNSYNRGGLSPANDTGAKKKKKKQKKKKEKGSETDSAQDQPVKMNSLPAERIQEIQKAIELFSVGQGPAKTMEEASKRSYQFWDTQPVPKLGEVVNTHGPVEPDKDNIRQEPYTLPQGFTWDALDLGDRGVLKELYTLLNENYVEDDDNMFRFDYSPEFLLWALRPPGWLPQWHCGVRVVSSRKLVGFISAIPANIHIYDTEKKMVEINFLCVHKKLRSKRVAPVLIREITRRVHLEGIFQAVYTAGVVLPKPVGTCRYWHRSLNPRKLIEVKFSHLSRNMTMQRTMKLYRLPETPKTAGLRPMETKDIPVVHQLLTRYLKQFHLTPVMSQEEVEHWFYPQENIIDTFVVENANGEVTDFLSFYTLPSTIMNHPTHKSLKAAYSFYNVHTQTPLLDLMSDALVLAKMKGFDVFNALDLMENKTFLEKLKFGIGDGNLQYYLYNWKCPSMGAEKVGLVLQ
As to the kind of experiment: fluorogenic CoA-release enzyme assay. It counts as biochemical.

Structures are written as SMILES.

The compound `CCCCCCCCCCCCCCN[C@H](CO)[C@H](O)c1ccc([N+](=O)[O-])cc1` [LCL204, (1R,2R)-LCL204] returned an IC50 of 2.3 µM. This counts as single-digit micromolar.

What is called IC50 is the concentration at which inhibition is half-maximal. Higher therefore signals weaker potency.
